Patent US20070161052A1, “TRPM5 based assays and the use thereof for the identification of modulators of sweet, bitter or umami (savory) taste” (SENOMYX, INC., priority 2005, published 2007)
“Also recorded” adds a separate entry of the source.

Key:
hTRPM5 = target: T1, hTRPM5 (Homo sapiens, UniProt Q9NZQ8); test: hTRPM5 membrane potential dye FLIPR assay in HEK-293 cells (transient or stable clone); format: cell-based; conditions: for change in membrane potential in hTRPM5-expressing HEK293 cells: agonist of an expressed receptor (endogenous muscarinic, transfected H1 or AT1) or Ca2+ ionophore, dye R-8034; for dependence of agonist-induced change in membrane potential on extracellular Na+: NaCl versus NMDG replacement; for change in membrane potential in hTRPM5-expressing cells not transfected with the agonist's receptor: unrelated agonist control
T1 construct: expressed in transfected cells
T1 sequence (Q9NZQ8 1-1165): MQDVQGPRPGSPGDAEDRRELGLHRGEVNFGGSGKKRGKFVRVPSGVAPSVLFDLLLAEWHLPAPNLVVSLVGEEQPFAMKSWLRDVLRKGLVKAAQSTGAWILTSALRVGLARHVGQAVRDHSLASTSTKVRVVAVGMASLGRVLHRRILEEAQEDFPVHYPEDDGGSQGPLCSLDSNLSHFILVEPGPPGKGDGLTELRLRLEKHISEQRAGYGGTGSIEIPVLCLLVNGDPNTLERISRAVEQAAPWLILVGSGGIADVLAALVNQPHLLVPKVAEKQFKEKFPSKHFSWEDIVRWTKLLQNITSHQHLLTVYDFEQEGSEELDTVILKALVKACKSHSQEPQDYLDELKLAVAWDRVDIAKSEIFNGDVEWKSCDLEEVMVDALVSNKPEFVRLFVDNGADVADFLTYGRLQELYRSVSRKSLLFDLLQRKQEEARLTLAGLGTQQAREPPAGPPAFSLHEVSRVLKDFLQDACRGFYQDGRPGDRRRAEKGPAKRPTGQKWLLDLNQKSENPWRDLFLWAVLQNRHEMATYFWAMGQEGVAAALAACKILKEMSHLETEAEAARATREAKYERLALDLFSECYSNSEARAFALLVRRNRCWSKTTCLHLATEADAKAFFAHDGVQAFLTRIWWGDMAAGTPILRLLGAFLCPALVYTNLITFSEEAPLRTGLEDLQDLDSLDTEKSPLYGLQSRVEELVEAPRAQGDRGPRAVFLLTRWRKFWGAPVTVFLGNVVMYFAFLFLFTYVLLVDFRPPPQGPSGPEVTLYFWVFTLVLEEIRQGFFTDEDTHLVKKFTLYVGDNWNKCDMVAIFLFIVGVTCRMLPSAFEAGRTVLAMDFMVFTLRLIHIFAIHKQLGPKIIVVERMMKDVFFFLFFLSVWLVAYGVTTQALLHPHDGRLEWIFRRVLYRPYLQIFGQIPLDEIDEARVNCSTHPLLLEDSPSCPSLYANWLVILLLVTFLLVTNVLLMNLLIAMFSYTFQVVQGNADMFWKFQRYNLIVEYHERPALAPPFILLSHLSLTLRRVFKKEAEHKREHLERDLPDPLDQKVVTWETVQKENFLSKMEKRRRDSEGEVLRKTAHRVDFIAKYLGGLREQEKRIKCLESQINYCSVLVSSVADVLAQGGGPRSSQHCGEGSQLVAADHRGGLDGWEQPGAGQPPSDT
Procedure: (§1) HEK-293 cells (about 50-70% confluency) contained in 10 cm dishes are transfected with 5 μg of TRPM5 DNA and pcDNA3 and 2 μg of RFP plasmids using TransH293.
(§2) After 24 hours, the cells are split into 384-well plates at ˜50,000 cells/well.
(§3) At 48 hours post-transfection the cells are loaded with membrane potential dyes in HBSS for 60 minutes at room temperature.
Compounds plates are prepared in HBSS.
HEK-293 cells transfected with TRPM5 nucleic acid sequence containing plasmid that comprises neo marker and stable cell clones are selected using neomycin.
Screened clones are screened using membrane potential dyes and FLIPR, for a GPCR-induced change in membrane potential.
This experiment is contained in FIG. 10. In the experiment HEK293 cells were transfected with a plasmid encoding hTRPM5 in pcDNA3.Neo. 48 hours later cells were put in selection media (500 ug/ml neomycin) and stable clones were selected and expanded. Clone #51 was further characterized for carbachol-induced hTRPM5 activation. Cells were loaded with a membrane potential dye (R-8034; Molecular Devices Corporation). […]

mouse TRPM5 = target: T2, mouse TRPM5 (Mus musculus, UniProt Q9JJH7); test: Mouse TRPM5 membrane potential dye assay in transfected HEK293 cells; format: cell-based; conditions: for change in membrane potential in mouse TRPM5-expressing HEK293 cells: agonist of an expressed receptor or Ca2+ ionophore, dye R-8034; for change in membrane potential in mouse TRPM5 cells not transfected with the agonist's receptor: unrelated agonist control
T2 construct: expressed in transfected cells; host or cells: HEK293, in some experiments co-transfected with the AT1 or H1 receptor or stably expressing mT2R5 and Galpha15
T2 sequence (Q9JJH7 1-1158): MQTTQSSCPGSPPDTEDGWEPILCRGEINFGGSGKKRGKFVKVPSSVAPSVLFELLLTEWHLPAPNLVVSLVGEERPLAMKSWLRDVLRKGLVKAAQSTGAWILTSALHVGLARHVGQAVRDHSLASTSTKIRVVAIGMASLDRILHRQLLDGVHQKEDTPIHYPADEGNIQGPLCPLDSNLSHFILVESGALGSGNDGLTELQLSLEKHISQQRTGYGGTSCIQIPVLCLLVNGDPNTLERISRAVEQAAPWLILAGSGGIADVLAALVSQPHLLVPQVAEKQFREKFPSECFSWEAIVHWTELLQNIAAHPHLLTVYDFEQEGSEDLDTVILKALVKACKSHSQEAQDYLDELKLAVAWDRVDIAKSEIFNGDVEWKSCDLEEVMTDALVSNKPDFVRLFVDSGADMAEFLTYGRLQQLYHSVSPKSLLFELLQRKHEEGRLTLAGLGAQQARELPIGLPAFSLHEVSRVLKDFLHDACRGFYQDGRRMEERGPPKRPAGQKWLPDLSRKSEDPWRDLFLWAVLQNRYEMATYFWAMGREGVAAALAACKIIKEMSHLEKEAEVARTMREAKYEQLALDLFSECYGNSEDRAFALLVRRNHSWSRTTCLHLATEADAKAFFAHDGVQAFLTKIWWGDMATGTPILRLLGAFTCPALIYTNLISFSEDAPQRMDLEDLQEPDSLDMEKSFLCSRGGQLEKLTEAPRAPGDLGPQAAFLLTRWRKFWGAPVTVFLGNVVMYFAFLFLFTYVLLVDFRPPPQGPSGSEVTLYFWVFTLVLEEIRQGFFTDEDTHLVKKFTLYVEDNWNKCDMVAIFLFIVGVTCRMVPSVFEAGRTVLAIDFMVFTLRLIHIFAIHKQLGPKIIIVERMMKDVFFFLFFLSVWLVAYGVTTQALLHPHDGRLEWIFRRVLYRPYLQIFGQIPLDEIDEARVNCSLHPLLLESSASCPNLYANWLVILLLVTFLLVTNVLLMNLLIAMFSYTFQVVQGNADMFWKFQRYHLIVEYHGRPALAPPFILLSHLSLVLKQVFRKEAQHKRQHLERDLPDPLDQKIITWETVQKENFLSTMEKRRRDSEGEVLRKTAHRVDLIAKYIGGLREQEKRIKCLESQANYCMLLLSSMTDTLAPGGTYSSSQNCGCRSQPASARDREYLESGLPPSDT
Procedure: as §1, §2, §3
This experiment contained in FIG. 8 compares mTRPM5 responses to the calcium ionophore ionomycin and various GPCR agonists. As shown in the left top panel HEK293 cells were transfected with a plasmid encoding mouse TRPM5 (red trace) or a control plasmid (pUC; blue trace). 48 hours later cells were loaded with a membrane potential dye (R-8034; Molecular Devices Corporation).
This experiment contained in FIG. 9 compares hTRPM5 and mTRPM5 responses to GPCR agonist compounds. As shown in the left panel HEK293 cells stably expressing the cycloheximide bitter receptor mT2R5 and the promiscuous G protein G[…]15 were transfected with a plasmid encoding for mouse TRPM05 or a control plasmid (pUC). 48 hours later cells were loaded with a membrane potential dye (R-8034; Molecular Devices Corporation).

[1] = test system: HEK293 cells lacking hTRPM5; test: Membrane potential dye assay in HEK293 cells lacking hTRPM5 (control plasmid pUC); format: cell-based, human; conditions: agonist stimulation
Procedure: (§4) As shown in the Left Panel: HEK293 cells were transfected with a plasmid encoding hTRPM5. 48 hours later cells were loaded with either a membrane potential dye (Molecular Devices Corporation; R-8034 or DisBAC) or a Ca^2+-sensitive dye (Fluo3). […] As shown in the Right Panel: HEK293 cells were transfected with a control plasmid (pUC) and treated as described above.
This experiment the results of which are shown in FIG. 5 evaluated TRPM5 induced changes in membrane potential. As shown in the left panel HEK293 cells were transfected with plasmids encoding the H1 histamine receptor with (red trace) or without (blue trace) a plasmid encoding hTRPM5. 48 hours later cells were loaded with a membrane potential dye (R-8034; Molecular Devices Corporation).
(§5) In this experiment the results of which are contained in FIG. 11 a library of ˜15,000 compounds (10 uM) was screened for hTRPM5 modulators using clone #51 (described in FIG. 10). In our initial screening conditions hTRPM5 was maximally stimulated with carbachol, using concentrations of 50 uM to 100 uM.

Ca^2+ mobilization = test: Ca2+ mobilization with Ca2+-sensitive dye (Fluo3) in HEK293 cells; format: cell-based, human
Procedure: as §4
This experiment the results of which are contained in FIG. 7 compared TRPM5 responses to the Ca++ ionophore ionomycin. As shown in the left panel HEK293 cells were transfected with a plasmid encoding hTRPM5. 48 hours later cells were loaded with either a membrane potential dye (R-8034; Molecular Devices Corporation) or a Ca^2+-sensitive dye (Fluo3).
as §5

| Compound | change in membrane potential in hTRPM5-expressing HEK293 cells (hTRPM5) | change in membrane potential in mouse TRPM5-expressing HEK293 cells (mouse TRPM5) | hTRPM5 activity produced (hTRPM5; 2 um carbachol) | dependence of agonist-induced change in membrane potential on extracellular Na+ (hTRPM5) | change in membrane potential in cells lacking hTRPM5 [1] | Ca^2+ response in control plasmid (pUC) transfected HEK293 cells (Ca^2+ mobilization) | Ca^2+ response in hTRPM5-transfected HEK293 cells (Ca^2+ mobilization) | change in membrane potential in mT2R05 / G15 stable HEK293 cells transfected with human TRPM5 (hTRPM5; versus pUC control) | change in membrane potential in mT2R5 / G15 stable HEK293 cells transfected with mouse TRPM5 (mouse TRPM5; versus pUC control) | change in membrane potential in hTRPM5-expressing cells not transfected with the agonist's receptor (hTRPM5) | change in membrane potential in mouse TRPM5 cells not transfected with the agonist's receptor (mouse TRPM5) |
| --- | --- | --- | --- | --- | --- | --- | --- | --- | --- | --- | --- |
| CNc1ccc2oc(C[C@H]3O[C@@]4(CC[C@H]3C)O[C@H]([C@H](C)C(=O)c3ccc[nH]3)[C@H](C)C[C@H]4C)nc2c1C(=O)O [A-23187] | TRPM5-dependent changes in membrane potential | TRPM5-dependent changes in membrane potential |  |  |  |  |  |  |  |  |  |
| C[N+](C)(C)CCOC(N)=O [carbachol] | concomitant increase in membrane potential; also recorded: dose-dependent increase in membrane potential; also recorded: dose-dependent increase in membrane potential that is much greater than what is seen in cells not expressing hTRPM5 | dose-dependent increase in membrane potential | 10-25% | only observed in the presence of NaCl | no change in membrane potential is observed; also recorded: no significant change in membrane potential | a significant increase in Ca^2+ is triggered | leads to Ca^2+ mobilization |  |  |  |  |
| C[C@@H]1C[C@@H]([C@H](O)CC2CC(=O)NC(=O)C2)C(=O)[C@@H](C)C1 [cycloheximide] |  |  |  |  |  |  |  | dose-dependent increase in membrane potential that is much greater than what is seen in cells not expressing human TRPM5 | dose-dependent increase in membrane potential that was much greater than what is seen in cells not expressing mouse TRPM5 |  |  |
| NCCc1c[nH]cn1 [histamine] | dose-dependent increase in membrane potential | dose-dependent increase in membrane potential |  | only observed in the presence of NaCl | no significant change in membrane potential |  |  |  |  | has no effect | did not have any effect |
| C[C@H](CCC(=O)O)C[C@H](C)C[C@H](C)C(=O)/C=C(\O)[C@H](C)C[C@H](C)C/C=C/[C@@H](C)[C@@H](O)[C@@H](C)[C@@H](O)C[C@@H]1CC[C@@](C)([C@H]2CC[C@@](C)([C@@H](C)O)O2)O1 [ionomycin] | concomitant increase in membrane potential; also recorded: dose-dependent increase in membrane potential that is noticeably greater in hTRPM5-expressing cells; also recorded: TRPM5-dependent changes in membrane potential | dose-dependent increase in membrane potential that is significantly greater in mouse-TRPM5 transfected cells; also recorded: TRPM5-dependent changes in membrane potential |  |  |  |  | leads to Ca^2+ influx |  |  |  |  |
| angiotensin II (DRVYIHPF) [AT1 angiotensin II receptor agonist] | dose-dependent increase in membrane potential | dose-dependent increase in membrane potential |  | only observed in the presence of NaCl | no significant change in membrane potential |  |  |  |  | did not have any effect | had no effect |
